The source of these data is BindingDB's records for doi:10.7270/Q2CN728N (Nmmlsc, 2008).

Counter-ions that a name gives are not always drawn.

The first experiment has as its target T1, Bcl-2-related protein A1 (Homo sapiens, UniProt Q16548).
T1 sequence (Q16548 whole entry): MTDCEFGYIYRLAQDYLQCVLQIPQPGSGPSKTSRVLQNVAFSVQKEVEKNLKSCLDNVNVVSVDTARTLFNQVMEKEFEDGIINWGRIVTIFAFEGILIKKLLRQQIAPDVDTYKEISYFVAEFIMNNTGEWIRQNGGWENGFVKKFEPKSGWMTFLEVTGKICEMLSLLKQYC
Kind of experiment: Bfl-1/Bim complex disruptors – biochemical, multiplexed, bead-based flow cytometry, dose response (AID 1320). The conditions noted are these: inactive by the depositor's call; pH 7.4; 4 °C.
The compound `CCOC(=O)c1cc2c(=O)n3ccccc3nc2n(Cc2ccco2)/c1=N/C(=O)c1ccccc1OC` [MLS000729830] returned an EC50 of 34.5 µM.
Compound `COc1ccccc1-n1c(-c2cc(-c3ccc(F)cc3)[nH]n2)n[nH]c1=S` [SMR000293072] yielded a half-maximal effective concentration (EC50) of 5.04 µM.
`Cc1ccc(-c2cc(-c3ccc4c(c3)OCO4)c(C#N)c(N)n2)o1` [SMR000001529] gave an EC50 of 1.88 µM.
Take `Cc1cc(C)nc(SCc2cc(=O)c(OC(=O)c3ccc(Cl)c([N+](=O)[O-])c3)co2)n1` [4-chloro-3-nitrobenzoic acid [6-[[(4,6-dimethyl-2-pyrimidinyl)thio]methyl]-4-oxo-3-pyranyl] ester]: a half-maximal effect (EC50) was put at 19.7 µM.
As to `Cc1cc2n(c1)CCn1c(C)ccc1-2` [MLS000104384], the concentration for a half-maximal effect (EC50) was 12.6 µM. Against the preceding compound, the EC50 is about 1.6-fold lower.
For `COC(=O)CSc1ncnc2c1sc1nc(-c3ccco3)c3c(c12)CC(C)(C)OC3` [MLS000039339], the EC50 was 12.4 µM.
Consider `CCc1cccc(CC)c1-n1c(-c2cccnc2)n[nH]c1=S` [MLS001006773], for which the concentration for a half-maximal effect (EC50) turned out to be 1.09 µM.
`Cc1nc2ncccn2c1-c1csc(Nc2ccccc2)n1` [4-(2-methyl-3-imidazo[1,2-a]pyrimidinyl)-N-phenyl-2-thiazolamine] displayed an EC50 of 11.7 µM.
Compound `CCCCNc1[nH]c(=S)nc2cc(OC)c(OC)cc12` [MLS000520261] gave an EC50 of 17.3 µM.
Still for that read-out and setting: the result for `CSc1nnc2c3cc(C)ccc3n(Cc3ccccc3)c2n1` [SMR000046397] reads 22.7 µM; that for `S=c1[nH]cc(-c2ccccc2)n1-c1ccccc1` [SMR000196363], 1.92 µM.
Same read-out and setting: with `COc1cc(OC)c([N+](=O)[O-])cc1[CH+][N-]NC(=O)c1ccncc1` [SMR000306621] the figure was 42.3 µM; with `Cc1ccc(/C=C/C(=O)c2ccccc(=O)c2O)cc1C` [MLS000756172], 14.9 µM.
As to `Cc1ccc(O)c(NC2=C(Cl)C(=O)N(Cc3ccccc3)C2=O)c1` [1-benzyl-3-chloro-4-(2-hydroxy-5-methylanilino)pyrrole-2,5-dione], the EC50 is 13.8 µM.
Compound `COc1cccc2c1C(=O)C=C(C)C2=O` [MLS000702735] had a concentration giving a half-maximal response (EC50) of 28.3 µM. Compared with the last compound, the EC50 is about 2.1-fold higher.
As for `Cc1onc(-c2ccccc2)c1C(=O)Nc1nnc(COc2ccc(Cl)cc2)s1` [N-{5-[(4-chlorophenoxy)methyl]-1,3,4-thiadiazol-2-yl}-5-methyl-3-phenyl-4-isoxazolecarboxamide], a half-maximal response (EC50) required 4.36 µM.
Regarding `NC(=O)c1c(N)sc2c1CCCCC2` [SMR000066289], the EC50 turned out to be 3.02 µM.
For the compound `O=C(N[N-][CH+]c1ccc(-c2ccccc2[N+](=O)[O-])o1)c1cncc(Br)c1` [5-bromo-N-[[5-(2-nitrophenyl)furan-2-yl]methylideneamino]pyridine-3-carboxamide], a half-maximal effect (EC50) was put at 33.6 µM.
The same measure, in the same setting: with `CCOC(=O)c1sc(N)c(C(=O)Nc2ccccc2OC)c1C` [5-amino-4-[(2-methoxyanilino)-oxomethyl]-3-methyl-2-thiophenecarboxylic acid ethyl ester] the figure was 5.66 µM; with `O=C1CSc2ccc(C(=O)Nc3cccc(S(=O)(=O)Nc4ccc(Br)cc4)c3)cc2N1`, 5.81 µM; with `COc1ccc(N2C(=O)C(=Cc3cccs3)NC2=S)cc1`, 3.86 µM.
Turning to `COc1cc(/N=c2/ssnc2Cl)cc(OC)c1` [4-chloro-N-(3,5-dimethoxyphenyl)-5-dithiazolimine], the EC50 is 15 µM.
In turn, `CC1N(C)c2cccc3cccc(c23)N1C` [1,2,3-trimethyl-2,3-dihydro-1H-perimidine] registered a 50% effective concentration (EC50) of 2.46 µM.
For the compound `C/C(=C\c1ccco1)C1Nc2cccc3cccc(c23)N1` [MLS000055728], the EC50 came out at 15.8 µM.
`CCOc1cc(C2Nc3cccc4cccc(c34)N2)ccc1O` [MLS000068595] returned an EC50 of 37.5 µM.
Compound `CCOc1cc(S(=O)(=O)Nc2ccccn2)ccc1F` [3-ethoxy-4-fluoro-N-(2-pyridinyl)benzenesulfonamide] gave a concentration giving a half-maximal response (EC50) of 44.5 µM.
With `O=C1c2ccccc2-c2onc3ccc(N4CCCC4)c1c23` [SMR000279741], the EC50 was 24.8 µM.
`CCN(CC)c1ccc(-c2nn3c(-c4n[nH]c5c4CCC5)nnc3s2)cc1` displayed an EC50 of 28.6 µM.

Staying with this experiment, now noted: pH 7.4; 4 °C.
The compound `Cc1ccc(-c2cc(-c3ccc(F)cc3)nc(N)c2C#N)o1` [MLS000082831] showed a concentration giving a half-maximal response (EC50) of 2.44 µM.
Same read-out and setting: with `O=C(NCCCO)Nc1ccc2nc(-c3ccco3)c(-c3ccco3)nc2c1` [1-[2,3-bis(2-furanyl)-6-quinoxalinyl]-3-(3-hydroxypropyl)urea] the figure was 1.25 µM.
The same measure, in the same setting: with `C=CS(=O)(=O)c1sc(Cl)c(N2CCOCC2)c1[N+](=O)[O-]` [4-(2-chloranyl-5-ethenylsulfonyl-4-nitro-thiophen-3-yl)morpholine] the figure was 5.46 µM; with `O=C1C(Cl)=C(N2CCN(c3ccccc3[N+](=O)[O-])CC2)C(=O)c2ccccc21`, 0.36 µM.
In turn, `Clc1ccc2c(N=NCc3ccccc3Br)ccnc2c1` [MLS000336087] had a half-maximal effective concentration (EC50) of 12.2 µM.
The compound `CCOc1cccc(CNc2ccc(O)cc2)c1OCc1ccc(Cl)cc1` [4-[[2-[(4-chlorophenyl)methoxy]-3-ethoxyphenyl]methylamino]phenol] yielded an EC50 of 2.8 µM. Against the preceding compound, the EC50 is about 4.4-fold lower.
With `CCOc1ccccc1CNc1ccc(O)cc1`, the EC50 came to 1.13 µM.
On the same count and under the same terms, the result for `O=C1C=CC(C=NNC(=O)C(=Cc2ccc([N+](=O)[O-])cc2)NC(=O)c2ccccc2)C(O)=C1O` (stereo not given) [MLS000530401] reads 5.22 µM; that for `CC(=O)OCCCNc1cc(Sc2nc3ccccc3s2)c2nonc2c1[N+](=O)[O-]` [MLS000521052], 0.08 µM; that for `Cc1c(N=C2C(=O)N(c3ccccc3Cl)C(=O)C2Cl)c(=O)n(-c2ccccc2)n1C` (stereo not given), 6.04 µM.
`Cc1cc(C)c(S(=O)(=O)N=C2C=C(SCC(=O)O)C(=O)c3ccccc32)cc1C` [2-[1-oxidanylidene-4-(2,4,5-trimethylphenyl)sulfonylimino-naphthalen-2-yl]sulfanylethanoic acid]: it took 8.24 µM to reach a half-maximal effect (EC50).
As for `CCOC(=O)CSC1=NC(=O)/C(=C\c2ccc(OC(C)=O)cc2)S1` [SMR000180755], the EC50 was determined as 3.33 µM.
The same measure, in the same setting: with `O=c1[nH]c2ccc(N=Cc3c(O)ccc4cc(Br)ccc34)cc2[nH]1` [SMR000171789] the figure was 4.46 µM; with `C=C[S+]([O-])c1sc(Cl)c(N2CCOCC2)c1[N+](=O)[O-]` (stereo not given) [SMR000293370], 0.85 µM; with `Clc1nss/c1=N\c1ccc(Br)cc1` [N-(4-bromophenyl)-4-chloro-5-dithiazolimine], 9.18 µM.
For `CC1CC(=Cc2cccc(F)c2)C2=NC(=S)NC(c3cccc(F)c3)C2C1` (stereo not given) [SMR000306148], the EC50 was found to be 15.2 µM. This EC50 lies about 1.7-fold higher than the previous one.
As to `c1coc(C2=Nc3cccc4cccc(c34)N2)c1` [2-(2-furanyl)-1H-perimidine], the EC50 came out at 6.32 µM.
The compound `Cc1cccc(NC2=NC(=O)C(=CC=Cc3ccco3)S2)c1C` [2-(2,3-Dimethyl-phenylamino)-5-[(E)-3-furan-2-yl-prop-2-en-(Z)-ylidene]-thiazol-4-one] displayed an EC50 of 3.17 µM.
Consider `CC(=O)NC1=C(NC2CCS(=O)(=O)C2)C(=O)c2ccccc2C1=O` (stereo not given) [N-[3-[(1,1-dioxothiolan-3-yl)amino]-1,4-dioxonaphthalen-2-yl]acetamide], for which it took 1.55 µM to reach a half-maximal effect (EC50). This EC50 is about 2-fold lower than that of the compound before.
The same measure, in the same setting: with `c1ccc(Nc2cccc(Nc3ccccc3)n2)cc1` [N,N'-diphenyl-2,6-pyridinediamine] the figure was 1.17 µM.
`O=C(NCc1ccccn1)c1ccc2nc(-c3ccco3)c(-c3ccco3)nc2c1` [2,3-di-2-furyl-N-(pyridin-2-ylmethyl)quinoxaline-6-carboxamide] displayed an EC50 of 3.66 µM.
In turn, `Cc1nnc(Sc2cc(NCCCO)c([N+](=O)[O-])c3nonc23)s1` [MLS000674027] yielded an EC50 of 0.13 µM. Against the preceding compound, the EC50 is about 28-fold lower.
The compound `O=C(NCc1ccccc1)c1ccc2nc(-c3ccco3)c(-c3ccco3)nc2c1` [2,3-bis(furan-2-yl)-N-(phenylmethyl)quinoxaline-6-carboxamide] returned an EC50 of 3.06 µM.
In turn, `Cc1cc(-c2cc(-c3ccc(Cl)cc3)nc(N)c2C#N)co1` [2-azanyl-6-(4-chlorophenyl)-4-(5-methylfuran-3-yl)pyridine-3-carbonitrile] returned an EC50 of 3.86 µM.
As for `COc1cc(CNc2ccc3[nH]c(=O)[nH]c3c2)cc(Br)c1OCC(=O)NC(C)(C)C` [2-[2-bromo-6-methoxy-4-[[(2-oxo-1,3-dihydrobenzimidazol-5-yl)amino]methyl]phenoxy]-N-tert-butylacetamide], the EC50 came to 0.87 µM.
`O=[N+]([O-])c1ccc(N=NCc2ccc(O)c(O)c2O)c(S(=O)(=O)N2CCOCC2)c1` [MLS000336720] registered an EC50 of 4.48 µM. This EC50 lies about 5.1-fold higher than the previous one.
Turning to `CCC(=O)N(CC)C1C(=O)C(=O)c2ccccc2C1=O` (stereo not given) [N-ethyl-N-(1-hydroxy-3,4-dioxo-2-naphthalenyl)propanamide], the EC50 turned out to be 0.08 µM. This EC50 lies about 56-fold lower than the previous one.
Regarding `CCN1/C(=C/C(C)=C/c2sc3ccccc3[n+]2CC)Sc2ccccc21` [SMR000354813], the EC50 worked out at 41.1 µM.
`CCN(C(=O)COC(=O)c1cc(-c2ccc(C)o2)nc2ccccc12)C1CCS(=O)(=O)C1` (stereo not given) [MLS001003409] gave an EC50 of 3.38 µM.
In turn, `Cc1cc(N)ccc1N1CCCC1` [3-methyl-4-(1-pyrrolidinyl)aniline;hydrochloride] yielded an EC50 of 7.93 µM.
Turning to `Cc1ccc(-c2c3c([nH]c(=S)c2C#N)CCCC3)o1` [4-(5-methylfuran-2-yl)-2-sulfanylidene-5,6,7,8-tetrahydro-1H-quinoline-3-carbonitrile], a half-maximal response (EC50) required 8.21 µM. The EC50 values of the last two compounds are within 1.5-fold of each other.
Consider `Nc1c(C(=O)NCC2CCCO2)sc2nc3c(c(-c4ccco4)c12)CC/C3=C\c1ccco1` (stereo not given) [SMR000259502], for which it took 0.87 µM to reach a half-maximal effect (EC50). Against the preceding compound, the EC50 is about 9.4-fold lower.
